Laboratory results from EP4624465A1, “COMPOUND SERVING AS DDR1 KINASE INHIBITOR, AND MEDICINE” (Nippon Shinyaku Co., Ltd., priority 2022, dated 2024).
pIC50: −log10 of the molar value. Counter-ions that a name gives are not always drawn.

Molecular target: DDR1 kinase (Homo sapiens, UniProt Q08345)
Assay: Evaluation of DDR1 kinase inhibition (LANCE Ultra TR-FRET kinase assay)
Format: biochemical
Parameters: purchased Carna Biosciences 08-113
Settings: DDR1 protein 0.5 nM, LANCE Ultra ULight-poly GAT substrate, 2 hours at room temperature, duplicate; read-out: DDR-1 IC50

Sequence of DDR1 kinase (Q08345 19-876 isoform Q08345-2 limits assumed): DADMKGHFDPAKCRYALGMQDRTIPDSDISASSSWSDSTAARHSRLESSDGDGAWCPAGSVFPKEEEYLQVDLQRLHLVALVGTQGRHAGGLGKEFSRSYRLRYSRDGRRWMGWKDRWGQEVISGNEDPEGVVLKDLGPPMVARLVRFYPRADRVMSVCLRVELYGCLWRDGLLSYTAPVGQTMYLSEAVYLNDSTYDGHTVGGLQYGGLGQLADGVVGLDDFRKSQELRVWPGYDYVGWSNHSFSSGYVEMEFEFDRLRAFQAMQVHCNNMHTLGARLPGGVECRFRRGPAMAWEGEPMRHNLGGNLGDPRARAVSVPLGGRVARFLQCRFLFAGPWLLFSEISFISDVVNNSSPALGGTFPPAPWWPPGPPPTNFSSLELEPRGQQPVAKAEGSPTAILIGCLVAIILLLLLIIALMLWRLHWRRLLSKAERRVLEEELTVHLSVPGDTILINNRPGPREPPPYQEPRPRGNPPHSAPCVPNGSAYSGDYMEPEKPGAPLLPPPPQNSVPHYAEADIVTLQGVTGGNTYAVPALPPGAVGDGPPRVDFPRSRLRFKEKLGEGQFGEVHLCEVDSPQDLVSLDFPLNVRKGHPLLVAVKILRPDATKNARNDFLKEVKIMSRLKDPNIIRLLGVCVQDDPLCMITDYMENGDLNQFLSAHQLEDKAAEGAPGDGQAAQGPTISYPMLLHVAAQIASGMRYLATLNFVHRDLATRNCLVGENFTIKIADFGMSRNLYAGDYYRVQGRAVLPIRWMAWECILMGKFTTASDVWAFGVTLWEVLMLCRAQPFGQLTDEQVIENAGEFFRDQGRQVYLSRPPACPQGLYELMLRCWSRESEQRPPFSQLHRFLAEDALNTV

SMILES | pIC50
O=C(C1CCOCC1)N1CC(c2nn(CC(=O)N3CCC[C@H]3C(F)(F)F)c3cc(F)cc(F)c23)C1 [Compound E-162, 2-{4,6-difluoro-3-[1-(oxane-4-carbonyl)azetidin-3-yl]-1H-indazol-1-yl}-1-[(2S)-2-(trifluoromethyl)pyrrolidin-1-yl]ethan-1-one] | 6.49
O=C(c1cn[nH]c1)N1CC(c2nn(CC(=O)N3CCC[C@H]3C(F)(F)F)c3cc(F)cc(F)c23)C1 [Compound E-164, 2-(4,6-difluoro-3-[1-(1H-pyrazole-4-carbonyl)azetidin-3-yl]-1H-indazol-1-yl}-1-[(28)-2-(trifluoromethyl)pyrrolidin-1-yl]ethan-1-one] | 6.70
Cc1[nH]ncc1C(=O)N1CC(c2nn(CC(=O)N3CCC[C@H]3C(F)(F)F)c3cc(F)cc(F)c23)C1 [Compound E-165, 2-{4,6-difluoro-3-[1-(5-methyl-1H-pyrazole-4-carbonyl)azetidin-3-yl]-1H-indazol-1-yl}-1-[(28)-2-(trifluoromethyl)pyrrolidin-1-yl]ethan-1-one] | 7.54
O=C(c1cn[nH]c1C(F)(F)F)N1CC(c2nn(CC(=O)N3CCC[C@H]3C(F)(F)F)c3cc(F)cc(F)c23)C1 [Compound E-166, 2-(4,6-difluoro-3-{1-[5-(trifluoromethyl)-1H-pyrazole-4-carbonyl]azetidin-3-yl}-1H-indazol-1-yl)-1-[(2S)-2-(trifluoromethyl)pyrrolidin-1-yl]ethan-1-one] | 6.82
Cc1cc2c(C3CN(C(=O)c4ccnc(N)c4)C3)nn(Cc3ccc(C(F)(F)F)cc3)c2cn1 [Compound E-168, 4-[3-(5-methyl-1-{[4-(trifluoromethyl)phenyl]methyl]-1H-pyrazolo[3,4-c]pyridin-3-yl)azetidine-1-carbonyl]pyridin-2-amine] | 7.19
Nc1cc(C(=O)N2CC(c3nn(Cc4nc(-c5ccncc5F)no4)c4cncc(F)c34)C2)ccn1 [Compound E-170] | 6.66
Nc1cc(C(=O)N2CC(c3nn(CC4Cc5ccccc5C4)c4cc(F)cc(F)c34)C2)ccn1 [Compound E-171, 4-(3-{1-[(2,3-dihydro-1H-inden-2-yl)methyl]-4,6-difluoro-1H-indazol-3-yl}azetidine-1-carbonyl)pyridin-2-amine] | 7.47
Nc1cc(C(=O)N2CC(c3nn(CC(=O)N4CCc5ccc(C6CC6)cc54)c4cc(F)cc(F)c34)C2)ccn1 [Compound E-172] | 8.89
Cc1nc(N)sc1C(=O)N1CC(c2nn(CC(=O)N3CCO[C@@H](C(F)(F)F)C3)c3cc(F)cc(F)c23)C1 [Compound E-173, 2-(3-[1-(2-amino-4-methyl-1,3-thiazole-5-carbonyl)azetidin-3-yl]-4,6-difluoro-1H-indazol-1-yl}-1-[(2R)-2-(trifluoromethyl)morpholin-4-yl]ethan-1-one] | 7.15
Nc1cc(C(=O)N2CCC(c3nn(CC(=O)N4CCC[C@H]4C(F)(F)F)c4cccc(F)c34)CC2)c(F)cn1 [Compound E-174, 2-{3-[1-(2-amino-5-fluoropyridine-4-carbonyl)piperidin-4-yl]-4-fluoro-1H-indazol-1-yl}-1-[(2S)-2-(trifluoromethyl)pyrrolidin-1-yl]ethan-1-one] | 8.96
Nc1cc(C(=O)N2CC(c3nn(CC(=O)N4CCC[C@H]4COC(F)(F)F)c4cc(F)cc(F)c34)C2)c(F)cn1 [Compound E-175, 2-{3-[1-(2-amino-5-fluoropyridine-4-carbonyl)azetidin-3-yl]-4,6-difluoro-1H-indazol-1-yl}-1-[(2S)-2-[(trifluoromethoxy)methyl]pyrrolidin-1-yl]ethan-1-one] | 9.30
CC1(C)CN(C(=O)Cn2nc(C3CN(C(=O)c4cc(N)ncc4F)C3)c3c(F)cc(F)cc32)CCO1 [Compound E-176, 2-{3-[1-(2-amino-5-fluoropyridine-4-carbonyl)azetidin-3-yl)-4,6-difluoro-1H-indazol-1-yl}-1-(2,2-dimethylmorpholin-4-yl)ethan-1-one] | 8.08
CC1(C)COCCN1C(=O)Cn1nc(C2CN(C(=O)c3cc(N)ncc3F)C2)c2c(F)cc(F)cc21 [Compound E-177, 2-{3-[1-(2-amino-5-fluoropyridine-4-carbonyl)azetidin-3-yl)-4,6-difluoro-1H-indazol-1-yl}-1-(3,3-dimethylmorpholin-4-yl)ethan-1-one] | 8.68
Cc1cc2c(C3CN(C(=O)c4ccnc(N)c4C)C3)nn(CC(=O)N3CCO[C@@H](C(F)(F)F)C3)c2cn1 [Compound E-178, 2-{3-[1-(2-amino-3-methylpyridine-4-carbonyl)azetidin-3-yl]-5-methyl-1H-pyrazolol3,4-clpyridin-1-yl}-1-[(2R)-2-(trifluoromethyl)morpholin-4-yl]ethan-1-one dihydrochloride] | 7.27
COC[C@@H]1CCCN1C(=O)Cn1nc(C2CN(C(=O)c3cc(N)ncc3F)C2)c2c(F)cc(F)cc21 [Compound E-179, 2-{3-[1-(2-amino-5-fluoropyridine-4-carbonyl)azetidin-3-yl]-4,6-difluoro-1H-indazol-1-yl}-1-f(2S)-2-(methoxymethyl)pyrrolidin-1-yllethan-1-one] | 8.54
C[C@H]1COC[C@H](C)N1C(=O)Cn1nc(C2CN(C(=O)c3cc(N)ncc3F)C2)c2c(F)cc(F)cc21 [Compound E-182, 2-{3-[1-(2-amino-5-fluoropyridine-4-carbonyl)azetidin-3-yl]-4,6-difluoro-1H-indazol-1-yl}-1-[(3S,5S)-3,5-dimethylmorpholin-4-yl]ethan-1-one] | 7.92
Nc1nccc(C(=O)N2CC(c3nn(CC(=O)N4CCO[C@@H](C(F)(F)F)C4)c4cc(F)cc(F)c34)C2)c1F [Compound E-184, 2-{3-[1-(2-amino-3-fluoropyridine-4-carbonyl)azetidin-3-yl]-4,6-difluoro-1H-indazol-1-yl}-1-[(2R)-2-(trifluoromethyl)morpholin-4-yl]ethan-1-one p-toluenesulfonate] | 8.52
CC1(C)COCCN1C(=O)Cn1nc(C2CN(C(=O)c3cc(N)ncc3F)C2)c2ccccc21 [Compound E-187, 2-{3-[1-(2-amino-5-fluoropyridine-4-carbonyl)azetidin-3-yl]-1H-indazol-1-yl}-1-(3,3-dimethylmorpholin-4-yl)ethan-1-one] | 9.22
CC1(C)COCCN1C(=O)Cn1nc(C2CN(C(=O)c3ccnc(N)c3F)C2)c2ccccc21 [Compound E-190, 2-{3-[1-(2-amino-3-fluoropyridine-4-carbonyl)azetidin-3-yl]-1H-indazol-1-yl}-1-(3,3-dimethylmorpholin-4-yl)ethan-1-one] | 8.12
Nc1cc(C(=O)N2CC(c3nn(CC(=O)N4CCO[C@@H](C(F)(F)F)C4)c4ccccc34)C2)c(F)cn1 [Compound E-192, 2-{3-[1-(2-amino-5-fluoropyridine-4-carbonyl)azetidin-3-yl]-1H-indazol-1-yl}-1-[(2R)-2-(trifluoromethyl)morpholin-4-yl]ethan-1-one] | 8.89
Nc1cc(C(=O)N2CC(c3nn(CC(=O)N4CCO[C@@H](C(F)(F)F)C4)c4ccccc34)C2)ccn1 [Compound E-193, 2-{3-[1-(2-aminopyridine-4-carbonyl)azetidin-3-yl]-1H-indazol-1-yl}-1-[(2R)-2-(trifluoromethyl)morpholin-4-yl]ethan-1-one] | 8.82
CC(C)(C)NC(=O)Cn1nc(C2CN(C(=O)c3ccnc(N)c3)C2)c2ccccc21 [Compound E-198, 2-{3-[1-(2-aminopyridine-4-carbonyl)azetidin-3-yl]-1H-indazol-1-yl}-N-tert-butylacetamide] | 7.51
CC(C)(C)NC(=O)Cn1nc(C2CN(C(=O)c3cc(N)ncc3F)C2)c2ccccc21 [Compound E-199, 2-{3-[1-(2-amino-5-fluoropyridine-4-carbonyl)azetidin-3-yl]-1H-indazol-1-yl}-N-tert-butylacetamide] | 8.28
Cc1ccc2c(c1)c(C1CN(C(=O)c3cc(N)ncc3F)C1)nn2CC(=O)N1CCC[C@H]1C(F)(F)F [Compound E-201, 2-{3-[1-(2-amino-5-fluoropyridine-4-carbonyl)azetidin-3-yl]-5-methyl-1H-indazol-1-yl}-1-[(28)-2-(trifluoromethyl)pyrrolidin-1-yl]ethan-1-one] | 8.77
Nc1cc(C(=O)N2CC(c3nn(CC(=O)N4CCC[C@H]4C(F)(F)F)c4ccc(F)cc34)C2)ccn1 [Compound E-202, 2-{3-[1-(2-aminopyridine-4-carbonyl)azetidin-3-yl]-5-fluoro-1H-indazol-1-yl}-1-[(28)-2-(trifluoromethyl)pyrrolidin-1-yl]ethan-1-one] | 8.96
Nc1cc(C(=O)N2CC(c3nn(CC(=O)N4CCO[C@@H](C(F)(F)F)C4)c4ccc(Cl)cc34)C2)ccn1 [Compound E-205, 2-{3-[1-(2-aminopyridine-4-carbonyl)azetidin-3-yl]-5-chloro-1H-indazol-1-yl}-1-[(2R)-2-(trifluoromethyl)morpholin-4-yl]ethan-1-one] | 8.80
Nc1cc(C(=O)N2CC(c3nn(CC(=O)N4CCC[C@H]4C(F)(F)F)c4ccc(Cl)cc34)C2)ccn1 [Compound E-207, 2-{3-[1-(2-aminopyridine-4-carbonyl)azetidin-3-yl]-6-chloro-1H-indazol-1-yl}-1-[(28)-2-(trifluoromethyl)pyrrolidin-1-yl]ethan-1-one] | 8.80
COCC(C)(C)NC(=O)Cn1nc(C2CN(C(=O)c3ccnc(N)c3)C2)c2ccccc21 [Compound E-208] | 6.77
CC1(NC(=O)Cn2nc(C3CN(C(=O)c4ccnc(N)c4)C3)c3ccccc32)CCOCC1 [Compound E-209, 2-{3-[1-(2-aminopyridine-4-carbonyl)azetidin-3-yl]-1H-indazol-1-yl}-N-(4-methyloxan-4-yl)acetamide] | 6.55
Nc1cc(C(=O)N2CC(c3nn(CC(=O)N4CCC[C@H]4C(F)(F)F)c4ccccc34)C2)c(Cl)cn1 [Compound E-210, 2-{3-[1-(2-amino-5-chloropyridine-4-carbonyl)azetidin-3-yl]-1H-indazol-1-yl]-1-[(2S)-2-(trifluoromethyl)pyrrolidin-1-yl]ethan-1-one] | 8.46
